Molecular target: T1, DHPS-3-dehydrogenase (CpHpsN) (Cupriavidus pinatubonensis, UniProt Q46N53)
T1 construct: gene hpsN
Assay: X-ray crystal structure, […] Å, co-crystallization; enzyme inhibition assay
Type: biochemical

T1 sequence (Q46N53 whole entry): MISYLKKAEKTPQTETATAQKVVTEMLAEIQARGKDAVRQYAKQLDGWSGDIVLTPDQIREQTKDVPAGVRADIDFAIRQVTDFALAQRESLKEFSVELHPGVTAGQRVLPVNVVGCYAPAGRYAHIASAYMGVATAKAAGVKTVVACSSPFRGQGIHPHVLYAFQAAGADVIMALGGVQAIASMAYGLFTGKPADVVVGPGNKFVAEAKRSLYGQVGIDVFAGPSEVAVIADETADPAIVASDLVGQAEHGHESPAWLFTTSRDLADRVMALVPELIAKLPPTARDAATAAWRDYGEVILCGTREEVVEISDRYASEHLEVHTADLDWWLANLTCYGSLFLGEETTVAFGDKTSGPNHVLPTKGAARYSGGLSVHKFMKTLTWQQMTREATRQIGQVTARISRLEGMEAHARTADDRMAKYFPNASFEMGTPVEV

N[C@@H](CS(=O)(=O)O)C(=O)O [L-cysteate]
IC50: 2400 µM

Reference: article PMC11382572, “Structural and kinetic insights into the stereospecific oxidation of R-2,3-dihydroxypropanesulfonate by DHPS-3-dehydrogenase from Cupriavidus pinatubonensis” (Chemical Science, 2024)
